Experimental data reported in patent US10065948B2, “Histone deacetylase inhibitors and compositions and methods of use thereof” (CHDI Foundation, Inc., priority 2014, dated 2018).

Tests used:
[1] = tested on: cellular histone deacetylase enzymatic activity in Jurkat E6-1 cells; test: Inhibition of cellular HDAC activity, Boc-Lys(Tfa)-AMC substrate (Cell Lys-TFA); assay type: cell-based
Method: The potency of the compounds is quantified by measuring the cellular histone deacetylase enzymatic activity using the fluorogenic substrate, Boc-Lys(Tfa)-AMC. After penetration in Jurkat E6-1 cells, the substrate is deacetylated to Boc-Lys-AMC. After cell lysis and cleavage by trypsin, the fluorophore AMC is released from the deacetylated substrate only. The fluorescence of the sample is directly related to the histone deacetylase activity in the sample.
Jurkat E6.1 cells are cultured according to standard cell culture protocols in Jurkat E6.1 Growth Media (RPMI without phenol red, 10% FBS, 10 mM HEPES, and 1 mM Sodium Pyruvate). Jurkat E6.1 cells are counted using a Coulter Counter and resuspended in Jurkat E6.1 growth media at a concentration of 75,000 cells/35 μL. 35 μL or 75,000 cells is seeded into Greiner microtitre assay plates. The plates are then incubated at 37° C. and 5% CO2 while other assay components are being prepared.
Stocks of 70 μL aliquots of the 10 mM compound in DMSO are prepared and stored at −20° C. From one stock aliquot of each compound to be tested and the reference compound, a 16-point serial dilution is prepared according to Table 1 using a 125 μL 16-channel Matrix multi-channel pipette.
2 μL (200×) of each diluted solution and each control (full activity: 100% DMSO alone or full inhibition 1 mM) is stamped into V-bottom polypropylene 384-well compound plates using either the Bravo, Janus, or 12.5 μL 16-channel Matrix multi-channel pipette. Each well with the 200× compound solution is diluted 1:20 by the addition of 38 μL Jurkat assay buffer+DMSO (9.5% DMSO, RPMI without phenol red, 0.09% FBS, 9 mM Hepes, and 0.9 mM Sodium Pyruvate equilibrated to room temperature)
5× (500 μM) substrate is prepared just prior to the addition to the assay. The 5× substrate is prepared by diluting a 100 mM Boc-Lys(Tfa)-AMC in DMSO solution 1:200 by adding it drop-wise to Jurkat assay medium (RPMI without phenol red, 0.1% FBS, 10 mM Hepes, and 1 mM Sodium Pyruvate equilibrated to 37° C.) while vortexing at slow speed to prevent precipitation.
10 mL of 3× lysis buffer is prepared with 8.8 ml of 3× stock lysis buffer (50 mM Tris-HCl, pH 8.0, 137 mM NaCl, 2.7 mM KCl, 1 mM MgCl2, 1% Nonidet P40 Substitute equilibrated to room temperature) and 1.2 mL of 3 mg/mL Trypsin equilibrated to room temperature.
5 μL of each solution of 1:20 diluted compound from above is transferred to the Greiner microtitre assay plates with 75,000 cells/well using the Bravo. Cells are then incubated for 2 hours at 37° C. and 5% CO2. […] The cells are then incubated for 3 hours at 37° C. and 5% CO2. Next, 25 μL of 3× lysis buffer is added to each well using either the 125 μL 16 channel pipette or the Bravo. The assay plate is then incubated overnight (15-16 hours) at 37° C. and 5% CO2. The following day, the plates are shaken on an orbital shaker for 1 minute at 900 rpm. Finally the top read fluorescence (Excitation: 355 nm, Emission: 460 nm) is measured using PerkinElmer EnVision.

[2] = tested on: cellular histone deacetylase activity (Lys-Ac); test: Inhibition of cellular HDAC activity (Cell Lys-Ac); assay type: cell-based; conditions: Lys-Ac substrate
[3] = Homo sapiens, Jurkat E6.1, Lys-TFA substrate

| Compound | IC50 [1, 3] | IC50 [2] | IC50 ([1]; Lys-TFA substrate) |
| --- | --- | --- | --- |
| Cc1c(F)cccc1C1(C(=O)NO)CCc2nn(CC(F)(F)F)cc2C1 (centres unmarked) [Example 35, 5-(3-Fluoro-2-methylphenyl)-N-hydroxy-1-(2,2,2-trifluoroethyl)-4,5,6,7-tetrahydro-1H-indazole-5-carboxamide and 5-(3-fluoro-2-methylphenyl)-N-hydroxy-2-(2,2,2-trifluoroethyl)-4,5,6,7-tetrahydro-2H-indazole-5-carboxamide] |  | > 50 µM | 0.77 µM |
| Cc1c(F)cccc1C1(C(=O)NO)Cc2nc(-c3cccc(F)c3)sc2C1 (single isomer, unassigned) [Example 65, E2-(abs)-5-(3-fluoro-2-methylphenyl)-2-(3-fluorophenyl)-N-hydroxy-5,6-dihydro-4H-cyclopenta[d]thiazole-5-carboxamide] |  | > 50 µM |  |
| Cc1c(F)cccc1[C@]1(C(=O)NO)Cc2cnn(-c3c(F)cccc3F)c2C1 [Example 11, (S)-1-(2,6-Difluorophenyl)-5-(3-fluoro-2-methylphenyl)-N-hydroxy-1,4,5,6-tetrahydrocyclopenta[c]pyrazole-5-carboxamide] | 0.027 µM | > 50 µM |  |
| Cc1c(F)cccc1[C@@]1(C(=O)NO)Cc2snc(-c3ccccc3)c2C1 [Example 81, E2-(abs)-5-(3-Fluoro-2-methylphenyl)-N-hydroxy-3-phenyl-5,6-dihydro-4H-cyclopenta[d]isothiazole-5-carboxamide] | 5.6 µM | > 50 µM |  |
| Cc1c(F)cccc1C1(C(=O)NO)Cc2nc(-c3cccc(F)c3)sc2C1 (single isomer, unassigned) [Example 64, E1-(abs)-5-(3-Fluoro-2-methylphenyl)-2-(3-fluorophenyl)-N-hydroxy-5,6-dihydro-4H-cyclopenta[d]thiazole-5-carboxamide] | 0.11 µM | > 50 µM |  |
| Cc1c(F)cccc1[C@@]1(C(=O)NO)Cc2nc(-c3ccc(F)cc3)sc2C1 [Example 66, (R)-5-(3-Fluoro-2-methylphenyl)-2-(4-fluorophenyl)-N-hydroxy-5,6-dihydro-4H-cyclopenta[d]thiazole-5-carboxamide] | 0.098 µM | > 50 µM |  |
| O=C(NO)C1(c2ccccc2)Cc2ccccc2C1 [Example 89, N-Hydroxy-2-phenyl-2,3-dihydro-1H-indene-2-carboxamide] | > 50 µM | > 50 µM |  |
| O=C(NO)[C@]1(c2ccccc2)CCc2ccccc21 [Example 87, E1-(abs)-N-Hydroxy-1-phenyl-2,3-dihydro-1H-indene-1-carboxamide] | 45.7 µM | > 50 µM |  |
| Cc1c(F)cccc1[C@]1(C(=O)NO)Cc2snc(-c3ccccc3)c2C1 [Example 80, E1-(abs)-5-(3-Fluoro-2-methylphenyl)-N-hydroxy-3-phenyl-5,6-dihydro-4H-cyclopenta[d]isothiazole-5-carboxamide] | 0.045 µM | > 50 µM |  |
| Cc1ccccc1-n1ncc2c1CCC(C(=O)NO)(c1cccc(F)c1C)C2 (single isomer, unassigned) [Example 38, E2-(abs)-5-(3-fluoro-2-methylphenyl)-N-hydroxy-1-(o-tolyl)-4,5,6,7-tetrahydro-1H-indazole-5-carboxamide] |  | > 50 µM | 11.2 µM |
| Cc1ccccc1-n1ncc2c1C[C@](C(=O)NO)(c1cccc(F)c1C)C2 [Example 2, (S)-5-(3-Fluoro-2-methylphenyl)-N-hydroxy-1-(o-tolyl)-1,4,5,6-tetrahydrocyclopenta[c]pyrazole-5-carboxamide] | 0.014 µM | > 50 µM |  |
| Cc1c(F)cccc1[C@]1(C(=O)NO)Cc2cnn(-c3ccc(F)cc3Cl)c2C1 [Example 90, (S)-1-(2-Chloro-4-fluorophenyl)-5-(3-fluoro-2-methylphenyl)-N-hydroxy-1,4,5,6-tetrahydrocyclopenta[c]pyrazole-5-carboxamide] | 0.015 µM | > 50 µM |  |
| Cc1c(F)cccc1[C@]1(C(=O)NO)Cc2cnc(C3CC3)nc2C1 [Example 52, (S)-2-Cyclopropyl-6-(3-fluoro-2-methylphenyl)-N-hydroxy-6,7-dihydro-5H-cyclopenta[d]pyrimidine-6-carboxamide] | 0.21 µM | > 50 µM |  |
| Cc1c(F)cccc1[C@@]1(C(=O)NO)Cc2cnc(C3CC3)nc2C1 [Example 50, (R)-2-Cyclopropyl-6-(3-fluoro-2-methylphenyl)-N-hydroxy-6,7-dihydro-5H-cyclopenta[d]pyrimidine-6-carboxamide] | 0.12 µM | > 50 µM |  |
| Cc1c(F)cccc1[C@@]1(C(=O)NO)CCc2nc(C3CC3)ncc21 [Example 51, (S)-2-cyclopropyl-5-(3-fluoro-2-methylphenyl)-N-hydroxy-6,7-dihydro-5H-cyclopenta[d]pyrimidine-5-carboxamide] | 1.4 µM | > 50 µM |  |
| Cc1c(F)cccc1[C@]1(C(=O)NO)CCc2nc(C3CC3)sc21 [Example 72, (S)-2-Cyclopropyl-6-(3-fluoro-2-methylphenyl)-N-hydroxy-5,6-dihydro-4H-cyclopenta[d]thiazole-6-carboxamide] | 0.79 µM | > 50 µM |  |

More lines, now with the values ahead:

| IC50 [1, 3] | IC50 [2] | IC50 ([1]; Lys-TFA substrate) | Compound |
| --- | --- | --- | --- |
| 0.2 µM | > 50 µM |  | Cc1c(F)cccc1[C@]1(C(=O)NO)Cc2cnc(-c3cccnc3)nc2C1 [Example 60, (S)-6-(3-Fluoro-2-methylphenyl)-N-hydroxy-2-(pyridin-3-yl)-6,7-dihydro-5H-cyclopenta[d]pyrimidine-6-carboxamide] |
| > 50 µM | > 50 µM |  | Cc1c(F)cccc1[C@@]1(C(=O)NO)CCc2nc(C3CC3)ncc21 (single isomer, unassigned) [Example 57] |
|  | > 50 µM | 26.7 µM | Cc1c(F)cccc1C1(C(=O)NO)CCc2nn(-c3ccccc3F)cc2C1 (single isomer, unassigned) [Example 34, E2-(abs)-5-(3-fluoro-2-methylphenyl)-2-(2-fluorophenyl)-N-hydroxy-4,5,6,7-tetrahydro-2H-indazole-5-carboxamide] |
| > 50 µM | > 50 µM |  | O=C(NO)[C@@]1(c2ccccc2)CCc2ccccc21 [Example 88, E2-(abs)-N-hydroxy-1-phenyl-2,3-dihydro-1H-indene-1-carboxamide] |
| 0.26 µM | > 50 µM |  | Cc1c(F)cccc1[C@]1(C(=O)NO)Cc2cnc(-c3ccc(F)cc3)nc2C1 [Example 55, (S)-6-(3-Fluoro-2-methylphenyl)-2-(4-fluorophenyl)-N-hydroxy-6,7-dihydro-5H-cyclopenta[d]pyrimidine-6-carboxamide] |
| 0.011 µM | > 50 µM |  | Cc1cc(F)ccc1-n1ncc2c1C[C@](C(=O)NO)(c1cccc(F)c1C)C2 [Example 22, (S)-5-(3-Fluoro-2-methylphenyl)-1-(4-fluoro-2-methylphenyl)-N-hydroxy-1,4,5,6-tetrahydrocyclopenta[c]pyrazole-5-carboxamide] |
| 0.32 µM | > 50 µM |  | Cc1c(F)cccc1[C@]1(C(=O)NO)CCc2c1cnn2-c1ccccc1 [Example 54, (R)-4-(3-Fluoro-2-methylphenyl)-N-hydroxy-1-phenyl-1,4,5,6-tetrahydrocyclopenta[c]pyrazole-4-carboxamide] |
| 0.134 µM | > 50 µM |  | Cc1cc(F)ccc1-n1cc2c(n1)C[C@](C(=O)NO)(c1cccc(F)c1C)C2 [Example 23, (S)-5-(3-fluoro-2-methylphenyl)-2-(4-fluoro-2-methylphenyl)-N-hydroxy-2,4,5,6-tetrahydrocyclopenta[c]pyrazole-5-carboxamide] |
